Values after ≈ are worked out from the molar mass of the structure shown. Where two headings read alike, the source gives them in different places.
How the values were obtained:
[1] = system: M. suipneumoniae Str. 11; assay: Anti-mycoplasma MIC; assay type: cell-based; conditions: Mesomycoplasma hyopneumoniae
[2] = system: M. suipneumoniae J2206/183b; assay: Anti-mycoplasma MIC; assay type: cell-based; conditions: Mesomycoplasma hyopneumoniae
[3] = system: M. dispar H225; assay: Anti-mycoplasma MIC; assay type: cell-based; conditions: M. dispar H225; Broth (Friis' broth, microtiter method); read-out: MIC
[4] = system: M. dispar NCTC 10125; assay: Anti-mycoplasma MIC; assay type: cell-based; conditions: M. dispar NCTC 10125; Broth (Friis' broth, microtiter method); read-out: MIC
[5] = system: M. pneumoniae 427a; assay: Anti-mycoplasma MIC; assay type: cell-based; conditions: Mycoplasmoides pneumoniae, read-out: MIC
[6] = system: M. pneumoniae ATCC 15492; assay: Anti-mycoplasma MIC; assay type: cell-based; conditions: Mycoplasmoides pneumoniae, ATCC15492, M. pneumoniae ATCC 15492, read-out: MIC
[7] = system: M. bovis ATCC 25025; assay: microbe, parasite or virus in culture; assay type: cell-based; conditions: ATCC25025
[8] = system: M. bovis NCTC 10131; assay: microbe, parasite or virus in culture; assay type: cell-based; conditions: NCTC10131
[9] = system: M. fermentans MWKL4; assay: Anti-mycoplasma MIC; assay type: cell-based; conditions: Mycoplasmopsis fermentans, read-out: MIC
[10] = system: M. pulmonis JB; assay: Anti-mycoplasma MIC; assay type: cell-based; conditions: Mycoplasmopsis pulmonis, read-out: MIC
[11] = system: M. hyorhinis ATCC 23234; assay: Anti-mycoplasma MIC; assay type: cell-based; conditions: Mesomycoplasma hyorhinis, ATCC23234; M. hyorhinis ATCC 23234; Agar (serial dilution in Friis' agar); read-out: MIC
[12] = system: M. hyosynoviae ATCC 25591; assay: Anti-mycoplasma MIC; assay type: cell-based; conditions: M. hyosynoviae ATCC 25591; Agar (serial dilution in Friis' agar); read-out: MIC
[13] = system: M. arthritidis ATCC 14124; assay: Anti-mycoplasma MIC; assay type: cell-based; conditions: M. arthritidis ATCC 14124; Agar (serial dilution in Friis' agar); read-out: MIC
[14] = system: M. gallisepticum S6; assay: Anti-mycoplasma MIC; assay type: cell-based; conditions: Mycoplasmoides gallisepticum; M. gallisepticum S6; Agar (serial dilution in Friis' agar); read-out: MIC
[15] = system: M. synoviae ATCC 25204; assay: Anti-mycoplasma MIC; assay type: cell-based; conditions: Mycoplasmopsis synoviae, ATCC25204; M. synoviae ATCC 25204; Agar (serial dilution in Friis' agar); read-out: MIC
[16] = system: M. alkalescens NCTC 10135; assay: Anti-mycoplasma MIC; assay type: cell-based
[17] = system: M. bovigenitalium ATCC 14173; assay: Anti-mycoplasma MIC; assay type: cell-based; conditions: M. bovigenitalium ATCC 14173; Agar (serial dilution in Friis' agar); read-out: MIC
[18] = system: Bord. bronchiseptica BO8; assay: MIC against veterinary bacteria; conditions: Bordetella bronchiseptica
[19] = system: Bord. bronchiseptica BO9; assay: MIC against veterinary bacteria; conditions: Bordetella bronchiseptica
[20] = system: Past. multocida PA1; assay: MIC against veterinary bacteria; conditions: Pasteurella multocida
[21] = system: Past. multocida PA2; assay: MIC against veterinary bacteria; conditions: Pasteurella multocida
[22] = system: Past. haemolytica PA5; assay: MIC against veterinary bacteria; conditions: Mannheimia haemolytica
[23] = system: Staph. aureus B4 (pen resistant); assay: MIC against veterinary bacteria; conditions: Staphylococcus aureus
[24] = system: Staph. aureus 152 (pen sensitive); assay: MIC against veterinary bacteria; conditions: Staphylococcus aureus
[25] = system: Strep. uberis SPU1; assay: MIC against veterinary bacteria; conditions: Streptococcus uberis
[26] = system: Strep. dysgalactiae SPD1; assay: MIC against veterinary bacteria; conditions: Streptococcus dysgalactiae
[27] = system: Strep. agalactiae SPA1; assay: MIC against veterinary bacteria; conditions: Streptococcus agalactiae
[28] = system: Past. multocida 1633; assay: MIC by serial dilution in nutrient agar (human bacteria); conditions: Pasteurella multocida
[29] = system: H. influenzae Q1; assay: as above; conditions: Haemophilus influenzae
[30] = system: H. influenzae Wy21; assay: as above; conditions: Haemophilus influenzae
[31] = system: B. subtilis; assay: as above; conditions: Bacillus subtilis
[32] = system: Staph. aureus Oxford; assay: as above; conditions: Staphylococcus aureus
[33] = system: Staph. aureus Russell; assay: as above; conditions: Staphylococcus aureus
[34] = system: Strep. pyogenes A 64/848; assay: as above; conditions: Streptococcus pyogenes, A64/848
[35] = system: Strep. pyogenes B 2788; assay: as above; conditions: Streptococcus pyogenes, B2788
[36] = system: Strep. pyogenes C 2761; assay: as above; conditions: Streptococcus pyogenes, C2761
[37] = system: N. catarrhalis 1502; assay: as above; conditions: Neisseria
[38] = system: Strep. pneumoniae CN33; assay: as above; conditions: Streptococcus pneumoniae
[39] = M. suipneumoniae Str. 11, Broth (Friis' broth, microtiter method), read-out: MIC
[40] = Agar (serial dilution in Friis' agar)
[41] = Broth (Friis' broth, microtiter method)
[42] = M. alkalescens NCTC 10135, Agar (serial dilution in Friis' agar), read-out: MIC

## C/C(=C\C(=O)OCCCCCCO)CC1OCC(C/C=C/C(C)C(C)O)C(O)C1O (stereo not drawn) [6-Hydroxyhexyl, 6-Hydroxyhexyl Monate C]
[1]; [39]
  MIC: 0.625 µg/mL (≈ 1.46 µM)
[2]; J2206/183B
  MIC: 1.25 µg/mL (≈ 2.92 µM)
[3]
  MIC: 0.156 µg/mL (≈ 0.364 µM)
[4]
  MIC: 0.156 µg/mL (≈ 0.364 µM)
[5]; [40]
  MIC: 1.25 µg/mL (≈ 2.92 µM)
[5]; [41]
  MIC: 0.625 µg/mL (≈ 1.46 µM)
[6]; [40]
  MIC: 1.25 µg/mL (≈ 2.92 µM)
[6]; [41]
  MIC: 0.625 µg/mL (≈ 1.46 µM)
[7]
  MIC: < 0.02 µg/mL
[8]
  MIC: < 0.02 µg/mL
[9]; [40]
  MIC: 0.078 µg/mL (≈ 0.182 µM)
[9]; [41]
  MIC: < 0.02 µg/mL
[10]; [40]
  MIC: 0.039 µg/mL (≈ 0.091 µM)
[10]; [41]
  MIC: < 0.02 µg/mL
[11]
  MIC: 1.25 µg/mL (≈ 2.92 µM)
[12]
  MIC: 0.078 µg/mL (≈ 0.182 µM)
[13]
  MIC: 5 µg/mL (≈ 11.7 µM)
[14]
  MIC: 10 µg/mL (≈ 23.3 µM)
[15]
  MIC: < 0.02 µg/mL
[16]; [42]
  MIC: < 0.02 µg/mL
[17]
  MIC: 0.039 µg/mL (≈ 0.091 µM)
[18]
  MIC: > 80 µg/mL
[19]
  MIC: 5 µg/mL (≈ 11.7 µM)
[20]
  MIC: 2.5 µg/mL (≈ 5.83 µM)
[21]
  MIC: 2.5 µg/mL (≈ 5.83 µM)
[22]
  MIC: 40 µg/mL (≈ 93.3 µM)
[23]
  MIC: 1.25 µg/mL (≈ 2.92 µM)
[24]
  MIC: 1.25 µg/mL (≈ 2.92 µM)
[25]
  MIC: 0.312 µg/mL (≈ 0.728 µM)
[26]
  MIC: 1.25 µg/mL (≈ 2.92 µM)
[27]
  MIC: 5 µg/mL (≈ 11.7 µM)
[28]
  MIC: 1 µg/mL (≈ 2.33 µM)
[29]
  MIC: 0.2 µg/mL (≈ 0.467 µM)
[30]
  MIC: 0.2 µg/mL (≈ 0.467 µM)
[31]
  MIC: 0.5 µg/mL (≈ 1.17 µM)
[32]
  MIC: 0.2 µg/mL (≈ 0.467 µM)
[33]
  MIC: 1 µg/mL (≈ 2.33 µM)
[34]
  MIC: 1 µg/mL (≈ 2.33 µM)
[35]
  MIC: 5 µg/mL (≈ 11.7 µM)
[36]
  MIC: 5 µg/mL (≈ 11.7 µM)

## C=CCOC(=O)/C=C(\C)CC1OCC(C/C=C/C(C)C(C)O)C(O)C1O (stereo not drawn) [Allyl, Allyl Monate C]
[1]; [39]
  MIC: 0.312 µg/mL (≈ 0.847 µM)
[2]; M. suipneumoniae J2206/183b, Broth (Friis' broth, microtiter method), read-out: MIC
  MIC: 1.25 µg/mL (≈ 3.39 µM)
[3]
  MIC: 0.078 µg/mL (≈ 0.212 µM)
[4]
  MIC: 0.156 µg/mL (≈ 0.423 µM)
[5]; [40]
  MIC: 5 µg/mL (≈ 13.6 µM)
[5]; [41]
  MIC: 10 µg/mL (≈ 27.1 µM)
[6]; [40]
  MIC: 10 µg/mL (≈ 27.1 µM)
[6]; [41]
  MIC: 10 µg/mL (≈ 27.1 µM)
[7]
  MIC: 0.078 µg/mL (≈ 0.212 µM)
[8]
  MIC: 0.078 µg/mL (≈ 0.212 µM)
[9]; [40]
  MIC: 0.156 µg/mL (≈ 0.423 µM)
[9]; [41]
  MIC: 0.039 µg/mL (≈ 0.106 µM)
[10]; [40]
  MIC: 0.156 µg/mL (≈ 0.423 µM)
[10]; [41]
  MIC: 0.039 µg/mL (≈ 0.106 µM)
[11]
  MIC: 2.5 µg/mL (≈ 6.78 µM)
[12]
  MIC: 1.25 µg/mL (≈ 3.39 µM)
[13]
  MIC: > 10 µg/mL
[14]
  MIC: > 10 µg/mL
[15]
  MIC: 0.039 µg/mL (≈ 0.106 µM)
[16]; [42]
  MIC: 0.078 µg/mL (≈ 0.212 µM)
[17]
  MIC: 0.078 µg/mL (≈ 0.212 µM)
[18]
  MIC: > 80 µg/mL
[19]
  MIC: 40 µg/mL (≈ 109 µM)
[20]
  MIC: 2.5 µg/mL (≈ 6.78 µM)
[21]
  MIC: 0.312 µg/mL (≈ 0.847 µM)
[22]
  MIC: 20 µg/mL (≈ 54.3 µM)
[23]
  MIC: 0.625 µg/mL (≈ 1.7 µM)
[24]
  MIC: 0.625 µg/mL (≈ 1.7 µM)
[25]
  MIC: 1.25 µg/mL (≈ 3.39 µM)
[26]
  MIC: 5 µg/mL (≈ 13.6 µM)
[27]
  MIC: 5 µg/mL (≈ 13.6 µM)
[28]
  MIC: 2.5 µg/mL (≈ 6.78 µM)
[29]
  MIC: 0.5 µg/mL (≈ 1.36 µM)
[37]
  MIC: 0.05 µg/mL (≈ 0.136 µM)
[31]
  MIC: 1 µg/mL (≈ 2.71 µM)
[32]
  MIC: 0.1 µg/mL (≈ 0.271 µM)
[33]
  MIC: 1 µg/mL (≈ 2.71 µM)
[34]
  MIC: 2.5 µg/mL (≈ 6.78 µM)
[35]
  MIC: 2.5 µg/mL (≈ 6.78 µM)
[36]
  MIC: 10 µg/mL (≈ 27.1 µM)
[38]
  MIC: 2.5 µg/mL (≈ 6.78 µM)

## C/C(=C\C(=O)OCC(C)C)CC1OCC(C/C=C/C(C)C(C)O)C(O)C1O (stereo not drawn) [Isobutyl, Isobutyl Monate C]
[1]; STR.11
  MIC: 1.25 µg/mL (≈ 3.25 µM)
[2]; J2206/183B
  MIC: 1.25 µg/mL (≈ 3.25 µM)
[3]
  MIC: 0.312 µg/mL (≈ 0.811 µM)
[4]
  MIC: 0.312 µg/mL (≈ 0.811 µM)
[5]; [40]
  MIC: 10 µg/mL (≈ 26 µM)
[5]; [41]
  MIC: 1.25 µg/mL (≈ 3.25 µM)
[6]; [40]
  MIC: 10 µg/mL (≈ 26 µM)
[6]; [41]
  MIC: 2.5 µg/mL (≈ 6.5 µM)
[7]
  MIC: 0.156 µg/mL (≈ 0.406 µM)
[8]
  MIC: 0.156 µg/mL (≈ 0.406 µM)
[9]; [40]
  MIC: 0.312 µg/mL (≈ 0.811 µM)
[9]; [41]
  MIC: 0.039 µg/mL (≈ 0.101 µM)
[10]; [40]
  MIC: 0.078 µg/mL (≈ 0.203 µM)
[10]; [41]
  MIC: < 0.02 µg/mL
[11]
  MIC: 2.5 µg/mL (≈ 6.5 µM)
[12]
  MIC: 0.625 µg/mL (≈ 1.63 µM)
[13]
  MIC: 5 µg/mL (≈ 13 µM)
[14]
  MIC: > 10 µg/mL
[15]
  MIC: 0.078 µg/mL (≈ 0.203 µM)
[16]
  MIC: 0.156 µg/mL (≈ 0.406 µM)
[17]
  MIC: 0.078 µg/mL (≈ 0.203 µM)
[18]
  MIC: > 80 µg/mL
[19]
  MIC: 40 µg/mL (≈ 104 µM)
[20]
  MIC: 10 µg/mL (≈ 26 µM)
[21]
  MIC: 10 µg/mL (≈ 26 µM)
[22]
  MIC: 80 µg/mL (≈ 208 µM)
[23]
  MIC: 1.25 µg/mL (≈ 3.25 µM)
[24]
  MIC: 1.25 µg/mL (≈ 3.25 µM)
[25]
  MIC: 1.25 µg/mL (≈ 3.25 µM)
[26]
  MIC: 5 µg/mL (≈ 13 µM)
[27]
  MIC: 10 µg/mL (≈ 26 µM)
[28]
  MIC: 5 µg/mL (≈ 13 µM)
[29]
  MIC: 1 µg/mL (≈ 2.6 µM)
[30]
  MIC: 1 µg/mL (≈ 2.6 µM)
[37]
  MIC: 1 µg/mL (≈ 2.6 µM)
[31]
  MIC: 1 µg/mL (≈ 2.6 µM)
[32]
  MIC: 0.5 µg/mL (≈ 1.3 µM)
[33]
  MIC: 1 µg/mL (≈ 2.6 µM)
[34]
  MIC: 10 µg/mL (≈ 26 µM)
[35]
  MIC: 25 µg/mL (≈ 65 µM)
[36]
  MIC: 25 µg/mL (≈ 65 µM)
[38]
  MIC: 5 µg/mL (≈ 13 µM)

From patent publication US4248887A, “Antibacterial compounds, processes for their preparation and compositions containing them” (priority 1978, dated 1981)
